Structures are written as SMILES. Where a name gives a salt, the structure may show the parent alone. Read-outs that look alike come from different tables or passages of the source.

Common to all, as to assay: AK assay 384-well format, Prestwick library screening
Test [1] deals with E. faecium. It counts as cell-based, Enterococcus faecium. Conditions: Enterococcus faecium, 3 h.
For test [2], the system named is P. aeruginosa. Type of test: cell-based, Pseudomonas aeruginosa. The note with it: Pseudomonas aeruginosa, 3 h.
Test [3] concerns S. aureus strain USA300-0114. Type of test: cell-based, Staphylococcus aureus. The note with it: Staphylococcus aureus, USA300, 3 h.
For test [4], the system named is K. pneumoniae. It counts as cell-based, Klebsiella pneumoniae. The note with it: Klebsiella pneumoniae, 3 h.
In test [5] the test system is A. baumannii strain 98-37-09. It counts as cell-based, Acinetobacter baumannii. The note with it: Acinetobacter baumannii, 983709, 3 h.
Test [6] deals with E. cloacae. It counts as cell-based, Enterobacter cloacae. The note with it: Enterobacter cloacae, 3 h.
Test [7] has as its system E. coli. It counts as cell-based, Escherichia coli. Conditions: Escherichia coli, 3 h.
The mark [8] stands for this setting: 50 μM final drug concentration, cutoff for positive-scoring molecules 3-fold increase, read-out: AK-based Prestwick Library Screening Results, E. faecium (fold increase in extracellular AK activity).
The mark [9] stands for this setting: 50 μM final drug concentration, cutoff for positive-scoring molecules 3-fold increase, read-out: AK-based Prestwick Library Screening Results, P. aeruginosa (fold increase in extracellular AK activity).
The mark [10] stands for this setting: 50 μM final drug concentration, cutoff for positive-scoring molecules 3-fold increase, read-out: AK-based Prestwick Library Screening Results, K. pneumoniae (fold increase in extracellular AK activity).
Where [11] appears, read: 50 μM final drug concentration, cutoff for positive-scoring molecules 3-fold increase, read-out: AK-based Prestwick Library Screening Results, A. baumannii (fold increase in extracellular AK activity).
Where [12] appears, read: 50 μM final drug concentration, cutoff for positive-scoring molecules 3-fold increase, read-out: AK-based Prestwick Library Screening Results, E. coli (fold increase in extracellular AK activity).
[13] abbreviates: 50 μM final drug concentration, cutoff for positive-scoring molecules 3-fold increase, read-out: AK-based Prestwick Library Screening Results, E. cloacae (fold increase in extracellular AK activity).
[14] abbreviates: planktonic E. faecium, 50 μM final drug concentration, cutoff for positive-scoring molecules 3-fold increase, read-out: AK-based Prestwick Library Screening Results, E. faecium (increase in extracellular AK activity).
Setting [15] is: planktonic P. aeruginosa, 50 μM final drug concentration, cutoff for positive-scoring molecules 3-fold increase, read-out: AK-based Prestwick Library Screening Results, P. aeruginosa (increase in extracellular AK activity).
Where [16] appears, read: planktonic K. pneumoniae, 50 μM final drug concentration, cutoff for positive-scoring molecules 3-fold increase, read-out: AK-based Prestwick Library Screening Results, K. pneumoniae (increase in extracellular AK activity).
Setting [17] is: planktonic A. baumannii, 50 μM final drug concentration, cutoff for positive-scoring molecules 3-fold increase, read-out: AK-based Prestwick Library Screening Results, A. baumannii (increase in extracellular AK activity).
Where [18] appears, read: planktonic E. cloacae, 50 μM final drug concentration, cutoff for positive-scoring molecules 3-fold increase, read-out: AK-based Prestwick Library Screening Results, E. cloacae (increase in extracellular AK activity).

In the case of `COc1cc(NC(C)CCCN)c2ncccc2c1` (centres unmarked) [Primaquine diphosphate], the fold induction at 50 µM in test [1] (50 μM final drug concentration, planktonic, cutoff for positive 3-fold increase, read-out: AK-based Prestwick Library Screening Results, E. faecium (fold increase in extracellular AK activity)) was 0.9; in test [2] (50 μM final drug concentration, planktonic, cutoff for positive 3-fold increase, read-out: AK-based Prestwick Library Screening Results, P. aeruginosa (fold increase in extracellular AK activity)), 1; in test [3] (50 μM final drug concentration, planktonic, cutoff for positive 3-fold increase, read-out: AK-based Prestwick Library Screening Results, S. aureus (fold increase in extracellular AK activity)), 2.1; in test [4] (50 μM final drug concentration, planktonic, cutoff for positive 3-fold increase, read-out: AK-based Prestwick Library Screening Results, K. pneumoniae (fold increase in extracellular AK activity)), 1; in test [5] (50 μM final drug concentration, planktonic, cutoff for positive 3-fold increase, read-out: AK-based Prestwick Library Screening Results, A. baumannii (fold increase in extracellular AK activity)), 1.1; in test [6] (50 μM final drug concentration, planktonic, cutoff for positive 3-fold increase, read-out: AK-based Prestwick Library Screening Results, E. cloacae (fold increase in extracellular AK activity)) it was 1.4.

With `O=C(NCCNCC(O)COc1ccc(O)cc1)N1CCOCC1` (centres unmarked) [Xamoterol hemifumarate], the fold induction at 50 µM in test [1] (read-out: AK-based Prestwick Library Screening Results, E. faecium (fold increase in extracellular AK activity)) is 1; in test [2] (read-out: AK-based Prestwick Library Screening Results, P. aeruginosa (fold increase in extracellular AK activity)), 1.2; in test [3] (read-out: AK-based Prestwick Library Screening Results, S. aureus (fold increase in extracellular AK activity)), 1.1; in test [4] (read-out: AK-based Prestwick Library Screening Results, K. pneumoniae (fold increase in extracellular AK activity)) it was 0.8; in test [5] (read-out: AK-based Prestwick Library Screening Results, A. baumannii (fold increase in extracellular AK activity)) it was 1; in test [6] (read-out: AK-based Prestwick Library Screening Results, E. cloacae (fold increase in extracellular AK activity)), 1.8.

Turning to `CCCCC(CC)CNC(=N)NC(=N)NCCCCCCNC(=N)NC(=N)NCC(CC)CCCC` (centres unmarked) [Alexidine dihydrochloride], the fold induction at 50 µM in test [1] (setting [8]) amounted to 7.4; in test [2] (setting [9]), 19.2; in test [4] (setting [10]) it was 23.4; in test [5] (setting [11]), 12.3; in test [7] (setting [12]), 43.3; in test [6] (setting [13]) it was 1.5.

Take `CS(=O)(=O)c1ccc([C@@H](O)[C@@H](CF)NC(=O)C(Cl)Cl)cc1` [Florfenicol]: the fold induction at 50 µM was found to be 1 in test [1] (setting [8]); 1.4 in test [2] (setting [9]); 0.3 in test [4] (setting [10]); 1.2 in test [5] (setting [11]); 1.2 in test [7] (50 μM final drug concentration, […], read-out: AK-based Prestwick Library Screening Results, E. coli (fold increase in extracellular AK activity)); 1.4 in test [6] (setting [13]).

Regarding `[H]/N=C(\N/C(=N/[H])NCCCCCCNC(=N)NC(=N)Nc1ccc(Cl)cc1)Nc1ccc(Cl)cc1` [Chlorhexidine, chlorhexidine, reference compound], the fold induction at 50 µM in test [1] (planktonic E. faecium, 50 μM final drug concentration, 384-well, cutoff for positive-scoring molecules 3-fold increase, read-out: AK-based Prestwick Library Screening Results: E. faecium (increase in extracellular AK activity)) is 4; in test [2] (planktonic P. aeruginosa, 50 μM final drug concentration, 384-well, cutoff for positive-scoring molecules 3-fold increase, read-out: AK-based Prestwick Library Screening Results: P. aeruginosa (increase in extracellular AK activity)) it was 23.8; in test [4] (planktonic K. pneumoniae, 50 μM final drug concentration, 384-well, cutoff for positive-scoring molecules 3-fold increase, read-out: AK-based Prestwick Library Screening Results: K. pneumoniae (increase in extracellular AK activity)), 18.8; in test [5] (planktonic A. baumannii, 50 μM final drug concentration, 384-well, cutoff for positive-scoring molecules 3-fold increase, read-out: AK-based Prestwick Library Screening Results: A. baumannii (increase in extracellular AK activity)) it was 12.3; in test [7] (planktonic E. coli, 50 μM final drug concentration, 384-well, cutoff for positive-scoring molecules 3-fold increase, read-out: AK-based Prestwick Library Screening Results: E. coli (increase in extracellular AK activity)) it was 50.1; in test [6] (planktonic E. cloacae, 50 μM final drug concentration, 384-well, cutoff for positive-scoring molecules 3-fold increase, read-out: AK-based Prestwick Library Screening Results: E. cloacae (increase in extracellular AK activity)), 1.8.

Take `CCCCCCCCCCCCCCCC[N+](C)(C)CCN(Cc1ccc(OC)cc1)c1ncccn1` [Thonzonium bromide]: the fold induction at 50 µM in test [1] (setting [8]) is 7.5; in test [2] (setting [9]), 1.5; in test [4] (setting [10]), 4.7; in test [5] (setting [11]), 5.6; in test [7] (setting [12]), 3.2; in test [6] (setting [13]), 1.8.

`O=C(O)CCCC[C@@H]1SC[C@@H]2NC(=O)N[C@@H]21` [Biotin]: the fold induction at 50 µM in test [1] (setting [14]) stood at 0.9; in test [2] (setting [15]) it was 0.7; in test [3] (planktonic S. aureus, 50 μM final drug concentration, cutoff for positive-scoring molecules 3-fold increase, read-out: AK-based Prestwick Library Screening Results, S. aureus (increase in extracellular AK activity)) it was 1.4; in test [4] (setting [16]) it was 0.6; in test [5] (setting [17]), 0.8; in test [6] (setting [18]), 0.8.

`CN[C@H](CC(C)C)C(=O)N[C@H]1C(=O)N[C@@H](CC(N)=O)C(=O)N[C@H]2C(=O)N[C@H]3C(=O)N[C@H](C(=O)N[C@H](C(=O)O)c4cc(O)cc(O)c4-c4cc3ccc4O)[C@H](O)c3ccc(c(Cl)c3)Oc3cc2cc(c3O[C@@H]2O[C@H](CO)[C@@H](O)[C@H](O)[C@H]2O[C@H]2C[C@](C)(N)[C@H](O)[C@H](C)O2)Oc2ccc(cc2Cl)[C@H]1O` [Vancomycin hydrochloride]: the fold induction at 50 µM in test [1] (read-out: AK-based Prestwick Library Screening Results, E. faecium (increase in extracellular AK activity)) is 1.5; in test [2] (read-out: AK-based Prestwick Library Screening Results, P. aeruginosa (increase in extracellular AK activity)), 0.9; in test [4] (read-out: AK-based Prestwick Library Screening Results, K. pneumoniae (increase in extracellular AK activity)) it was 0.8; in test [5] (read-out: AK-based Prestwick Library Screening Results, A. baumannii (increase in extracellular AK activity)), 1.1; in test [7] (read-out: AK-based Prestwick Library Screening Results, E. coli (increase in extracellular AK activity)), 1.2; in test [6] (read-out: AK-based Prestwick Library Screening Results, E. cloacae (increase in extracellular AK activity)) it was 0.9.

`Oc1ccc(C=Cc2cc(O)cc(O)c2)cc1` [Resveratrol]: in test [6] (setting [18]), the fold induction at 50 µM turned out to be 0.1.

Consider `O=c1cc(-c2ccc(O)cc2)oc2cc(O)cc(O)c12` [Apigenin], for which the fold induction at 50 µM in test [1] (setting [14]) was 0.3; in test [2] (setting [15]), 0.2; in test [4] (setting [16]), 0.2; in test [5] (setting [17]) it was 0.2; in test [7] (planktonic E. coli, 50 μM final drug concentration, cutoff for positive-scoring molecules 3-fold increase, read-out: AK-based Prestwick Library Screening Results, E. coli (increase in extracellular AK activity)), 0.2; in test [6] (setting [18]), 0.5.

Take `NNc1nncc2ccccc12` [Hydralazine hydrochloride]: the fold induction at 50 µM in test [1] (50 μM final drug concentration, 384-well format, cutoff for positive-scoring molecules 3-fold increase, read-out: AK-based Prestwick Library Screening Results, E. faecium (increase in extracellular AK activity)) was 0.3; in test [3] (50 μM final drug concentration, 384-well format, cutoff for positive-scoring molecules 3-fold increase, read-out: AK-based Prestwick Library Screening Results, S. aureus (increase in extracellular AK activity)), 0.2; in test [5] (50 μM final drug concentration, 384-well format, cutoff for positive-scoring molecules 3-fold increase, read-out: AK-based Prestwick Library Screening Results, A. baumannii (increase in extracellular AK activity)), 0.1; in test [6] (50 μM final drug concentration, 384-well format, cutoff for positive-scoring molecules 3-fold increase, read-out: AK-based Prestwick Library Screening Results, E. cloacae (increase in extracellular AK activity)), 0.3.

(Values after US10004701B2, “Methods and compositions for treating infection” (UNIVERSITY OF ROCHESTER, priority 2012, dated 2018).)
